US20140045908A1, “HSP90 INHIBITORY COMPOUNDS IN TREATING JAK/STAT SIGNALING-MEDIATED CANCERS” (SYNTA PHARMACEUTICALS CORP., priority 2011, published 2014)

Test system: SET-2, HEL92.1.7, MV4-11, NCI-H1975 and DU145 cells
Test: Cell viability assay (AlamarBlue, 72 h), group of JAK/STAT-dependent tumor cell lines
Type: cell-based, human
Experimental: SET-2, HEL92.1.7, MV4-11, NCI-H1975 and DU145 cells were treated with ganetespib or 17-AAG over a broad dose range (0.0001 to 1 μM) for 72 h and cell viability assessed by Alamar blue staining.
All cell lines were obtained from the ATCC (Rockville, Md., USA), with the exception of SET-2 cells which were purchased from the German Collection of Microorganisms and Cell Cultures (DSMZ, Germany). Cells were maintained and cultured according to standard techniques at 37° C. in 5% (v/v) CO2 using culture medium recommended by the supplier.
Cells were grown in 96-well plates based on optimal growth rates determined empirically for each line. Twenty-four hours after plating, cells were dosed with the indicated compound or DMSO (0.3%) for 72 h. AlamarBlue (Invitrogen, Carlsbad, Calif., USA) was added (10% v/v) to the cells, and the plates were incubated for 3 h and subjected to fluorescence detection (Ex=545 nm, Em=600 nm) in a SpectraMax Plus 384 microplate reader (Molecular Devices, Sunnyvale, Calif., USA). Data are normalized to percent of control, with IC50 values based on a four-parameter logistic dose response curve (model 205) using XLfit version 5.1 from IDBS (Guildford, U.K.).

`CC(C)c1cc(-c2nnc(O)n2-c2ccc3c(ccn3C)c2)c(O)cc1O` [ganetespib, 3-(2,4-dihydroxy-5-isopropyl-phenyl)-4-(1-methyl-indol-5-yl)-5-hydroxy-[1,2,4] triazole] was tested, and the “potency compared with 17-AAG, cell viability” value (each of the lines tested) was “more potent than the ansamycin Hsp90 inhibitor 17-AAG” and the “potency in reducing cellular viability” value (group of human hematological and solid tumor cell lines, 72 h) was “low nanomolar potency”.
